Test system: BJ, HEK293, HEP G2, and Raji cell lines
Assay: Cytotoxicity
Assay type: cell-based, human
Settings: four mammalian cell lines (BJ, HEK293, HEP G2, Raji)

Cc1cc(NC(=O)Nc2cccc(OC(F)(F)F)c2)c2ccccc2n1 [4{13, 34}]
mammalian cytotoxicity (in words): weak

Source: article PMC3019604 (ACS medicinal chemistry letters, 2010)
